US4302461A, “Antiinflammatory 5-substituted-2,3-diarylthiophenes” (E. I. Du Pont de Nemours and Company, priority 1980, dated 1981)

System: Established Adjuvant-Induced Arthritis in Rats
Experiment: Established Adjuvant-Induced Arthritis in Rats (uninjected left hind paw volume)
Format: in vivo, Lewis (Wistar) male rats
Conditions: Rattus norvegicus, 168 h; oral gavage once daily for 7 days (days 14-20); estimated by inspection of dose-response regression lines; read-out: ED50 % Decrease From Control Paw Volume

SMILES	ED50 [mg/kg]
Fc1ccc(-c2cc(SC(F)(F)F)sc2-c2ccc(Cl)cc2)cc1 [Example 9]	10
CSc1ccc(-c2sc(SC(F)(F)F)cc2-c2ccc(F)cc2)cc1 [Example 22]	0.4
Fc1ccc(-c2sc(SC(F)(F)F)cc2-c2ccc(Cl)cc2)cc1 [Example 7]	4
CSc1ccc(-c2cc(SC(F)(F)F)sc2-c2ccc(F)cc2)cc1 [Example 24]	0.15
O=S(=O)(c1cc(-c2ccc(F)cc2)c(-c2ccc(F)cc2)s1)C(F)(F)F [Example 2, 2,3-bis(4-Fluorophenyl)-5-(trifluoromethylsulfonyl)thiophene]	10
Fc1ccc(-c2cc(SC(F)(F)F)sc2-c2ccc(F)cc2)cc1 [Example 1, 2,3-bis(4-Fluorophenyl)-5-(trifluoromethylthio)thiophene]	3.5
COc1ccc(-c2cc(SC(F)(F)F)sc2-c2ccc(S(C)(=O)=O)cc2)cc1 [Example 21]	9
CCCCC1C(=O)N(c2ccccc2)N(c2ccccc2)C1=O [Phenylbutazone, reference compound]	10

Same assay, conditions: Rattus norvegicus, 504 h; Daily Oral Dose 20 mg/kg, once daily for 7 days (days 14-20), paw volume on day 21; read-out: Percent Decrease from Control Paw Volume

SMILES	inhibition in vivo at 20 mg/kg [%]
COc1ccc(-c2cc(SC(F)(F)F)sc2-c2ccc(OC)cc2)cc1 [Example 6]	32
FC(F)(F)Sc1cc(-c2ccccc2)c(-c2ccccc2)s1 [Example 5]	33

Same assay, conditions: Rattus norvegicus, 504 h; Daily Oral Dose 27 mg/kg, once daily for 7 days (days 14-20), paw volume on day 21; read-out: Percent Decrease from Control Paw Volume

SMILES	inhibition in vivo at 27 mg/kg [%]
O=S(=O)(c1cc(-c2ccc(F)cc2)c(-c2ccc(F)cc2)s1)C(F)(F)C(F)F [Example 12]	34
CSc1cc(-c2ccc(F)cc2)c(-c2ccc(F)cc2)s1 [Example 8]	25
COc1ccc(-c2cc(SC)sc2-c2ccc(OC)cc2)cc1 [Example 3, 2,3-bis(4-Methoxyphenyl)-5-(methylthio)thiophene]	43
COc1ccc(-c2cc(SC(F)(F)C(F)F)sc2-c2ccc(OC)cc2)cc1 [Example 4, 2,3-bis(4-Methoxyphenyl)-5-(1,1,2,2-tetrafluoroethylthio)thiophene]	11
Fc1ccc(-c2cc(SC(F)(F)C(F)F)sc2-c2ccc(F)cc2)cc1 [Example 10]	28
COc1ccc(-c2cc(S(=O)(=O)C(F)(F)C(F)F)sc2-c2ccc(OC)cc2)cc1 [Example 11]	23

Same assay, conditions: Rattus norvegicus, 504 h; Daily Oral Dose 81 mg/kg, once daily for 7 days (days 14-20), paw volume on day 21; read-out: Percent Decrease from Control Paw Volume

SMILES	inhibition in vivo at 81 mg/kg [%]
CCCCCCSc1cc(-c2ccc(OC)cc2)c(-c2ccc(OC)cc2)s1 [Example 20]	39

Same assay, conditions: Rattus norvegicus, po, 168 h, read-out: ED50 % Decrease From Control Paw Volume

SMILES	ED50 [mg/kg]
COc1ccc2c(c1)c(CC(=O)O)c(C)n2C(=O)c1ccc(Cl)cc1 [Indomethacin, reference compound]	0.25
CC(=O)Oc1ccccc1C(=O)O [Aspirin, reference compound]	270

Same assay, conditions: at the dose level tested

SMILES	antiinflammatory activity (statistical significance)
COc1ccc(-c2cc(SC(F)(F)C(F)F)sc2-c2ccc(OC)cc2)cc1 [Example 4, 2,3-bis(4-Methoxyphenyl)-5-(1,1,2,2-tetrafluoroethylthio)thiophene]	did not exhibit statistically significant antiinflammatory activity
